Active and inactive are the calls of the source. No cut-off for these calls is given here. Numbered stars: 1 amine (or outer) side, 2 acyl side, 3 side chain; on linkers, the order of the positions; unused ones are H or OH. Bridge positions count the residues as written; N and C are the ends. Square brackets hold non-standard residues; d marks the D form. Peptide text beside a SMILES is read from it. N(2-Aminoethyl)Gly = O=C(CN(CCN[*:3])[*:1])[*:2]; CO = O=C([*:1])[*:2]; Nlys = NCCCCNCC(=O)O

What all share (assay type): cell-based
Series [1] concerns the target C-C chemokine receptor type 2 (Homo sapiens) (UniProt P41597). Put plainly: Binding affinity to CCR2 in human THP1 cells assessed as inhibition of monocyte migration after 30 mins by Transwell assay. The note with it: THP-1.
The target is the same in series [2]. Kind of series: Binding affinity to CCR2 in human THP1 cells assessed as inhibition of SDF1-mediated monocyte migration after 30 mins by Transwell assay. The following applies: THP-1.
The next series deals with THP-1. Put plainly: Cytotoxicity against human THP1 cells assessed as cell death.
Series [3] concerns the target C-C chemokine receptor type 2 (Homo sapiens) (UniProt P41597). Kind of series: Binding affinity to CCR2 in human THP1 cells assessed as inhibition of MCP1-mediated monocyte migration after 30 mins by Transwell assay relative to untreated control. The following applies: THP-1.
Series [4] has the same target. Kind of series: Binding affinity to CCR2 in human THP1 cells assessed as inhibition of MCP1-mediated monocyte migration at 10 uM after 30 mins by Transwell assay relative to untreated control. The note with it: THP-1.

Sequence of C-C chemokine receptor type 2 (Homo sapiens) (P41597 whole entry, looked up): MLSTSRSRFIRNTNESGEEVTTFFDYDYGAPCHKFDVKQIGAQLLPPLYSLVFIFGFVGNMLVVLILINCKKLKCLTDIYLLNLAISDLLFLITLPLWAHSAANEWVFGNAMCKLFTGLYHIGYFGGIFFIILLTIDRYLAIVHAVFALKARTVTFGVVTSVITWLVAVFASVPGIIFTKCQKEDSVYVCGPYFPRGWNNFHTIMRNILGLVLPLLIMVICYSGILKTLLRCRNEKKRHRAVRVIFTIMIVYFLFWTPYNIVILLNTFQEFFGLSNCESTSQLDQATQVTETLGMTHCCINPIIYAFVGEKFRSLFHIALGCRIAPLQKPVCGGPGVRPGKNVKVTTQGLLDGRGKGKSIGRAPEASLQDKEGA

`CC[C@H](C)[C@@H]1NC(=O)[C@H](CC(C)C)NC(=O)CN(C(=O)[C@@H](NC(=O)[C@H](CC(C)C)NC(=O)[C@@H](N)CCSC)C(C)C)CCNC(=O)NCCCCN(CC(N)=O)C1=O` (H-MLV[N(2-Aminoethyl)Gly]LI[Nlys]-NH2; linker 4-7 via CO): the inhibition result in series [1] and in series [2] was “inactive” in each case. Also, in the series on THP-1, the Activity result is recorded as “Non-toxic”. The inhibition result in series [3] is “Active”.

For the compound `CC[C@H](C)[C@H](NC(=O)CN1CCCCNC(=O)NCCN(C(=O)[C@@H](N)CCSC)CC(=O)N[C@@H](C(C)C)C(=O)N[C@@H](C(C)C)C1=O)C(=O)N[C@@H](CC(C)C)C(N)=O` (H-M[N(2-Aminoethyl)Gly]VV[Nlys]IL-NH2; linker 2-5 via CO), the inhibition result in series [3] was “inactive”.

With `CC[C@H](C)[C@H](NC(=O)[C@H](CC(C)C)NC(=O)[C@@H](N)C(C)C)C(=O)N[C@@H](CC(C)C)C(=O)O` (H-VLIL-OH), the inhibition result in series [4] is “inactive”.

With `CC[C@H](C)[C@H](NC(=O)[C@H](CC(C)C)NC(=O)CN1CCCCNC(=O)NCCNCC(=O)N[C@@H](CC(C)C)C(=O)N[C@@H](C(C)C)C1=O)C(=O)N[C@@H](CC(C)C)C(N)=O` (H-[N(2-Aminoethyl)Gly]LV[Nlys]LIL-NH2; linker 1-4 via CO), in series [3], the inhibition result was “inactive”.

With `CC[C@H](C)[C@H](NC(=O)[C@H](CC(C)C)NC(=O)[C@@H](NC(=O)CN1CCCCNC(=O)NCCNCC(=O)N[C@@H](CCSC)C(=O)N[C@@H](CC(C)C)C1=O)C(C)C)C(=O)N[C@@H](CC(C)C)C(N)=O` (H-[N(2-Aminoethyl)Gly]ML[Nlys]VLIL-NH2; linker 1-4 via CO), the inhibition result in series [3] was “inactive”.

Consider H-LVVLIL-OH, for which the inhibition entry in series [4] was “inactive”.

Consider H-MLVVLIL-OH, for which the inhibition entry in series [4] is “Active”.

Consider H-VVLIL-OH, for which, in series [4], the inhibition result was “inactive”.

The values above are taken from ChEMBL document CHEMBL2396630, “Backbone cyclic helix mimetic of chemokine (C-C motif) receptor 2: a rational approach for inhibiting dimerization of G protein-coupled receptors” (Bioorg Med Chem, 2013).
